These results are taken from patent US20250051301A1, “MUTANT IDH1 AND IDH2 INHIBITOR AND APPLICATION THEREOF” (Betta Pharmaceuticals Co., Ltd, priority 2022, published 2025).

By IC50 is commonly meant the concentration that gives 50% inhibition. Broadly, the AUC(0-t) is the area under the concentration-time curve up to a stated or last time point. Higher therefore signals more exposure. By Cmax is commonly meant the peak of the concentration-time curve. A word on the solubility: it is the concentration that dissolves in the medium under given conditions. Low readings indicate a poorly soluble substance, high ones a readily soluble substance.

Data set [1] addresses T1, IDH1^R132H (Homo sapiens, UniProt O75874, R132H). Put plainly: Enzyme activity inhibition assay (fluorescence-based), IDH1 R132H. The data set is classed as biochemical. The method, then:
(§1) The inhibitory ability of the compounds on the enzyme activities of IDH1^R132H and IDH2^R140Qwas detected and expressed as the half inhibitory concentration (IC50) value. AG-881 was used as a positive control compound. In this experiment, compounds were screened on enzymes IDH1^R132H and IDH2^R140Q using a fluorescence-based method (initial concentration: 10000 nM, 3-fold dilution, 10 concentrations, and single-well detection). • (1) Preparation of 1×assay buffer. • (2) Preparation of compound concentration gradient: the compounds to be tested were assayed at an initial concentration of 10000 nM, with 3-fold dilution and 10 concentrations, and diluted into 200-fold the final concentration in 100% DMSO solution in a 384-well plate. • (3) 250 nL of DMSO and 250 nL of diluted compounds were transferred to a reaction plate with Echo 550. • (4) IDH2^R140Q enzyme detection: 25 μL of an IDH2^R140Q enzyme solution was added, and the mixture was incubated for 60 minutes; then 25 μL of a substrate solution was added, and the mixture was incubated for 150 minutes; then 25 μL of a detection buffer was added, and the mixture was shaken for 1 minute and incubated for 60 minutes; and finally, Synergy 2, Ex544/Em590 cutoff 590 was used for reading. • (5) IDH1^R132H enzyme detection: 40 μL of a mixture solution of an IDH1^R132H enzyme at the 1.25-fold final concentration and NADPH was added, and the mixture was incubated for 60 minutes; then 10 μL of a substrate solution at the 5-fold final concentration was added, and the mixture was incubated for 90 minutes; then 25 μL of a detection buffer at the 3-fold final concentration was added, and the mixture was shaken for 1 minute. and finally, Synergy 2, Ex544/Em590 cutoff 590 was used for reading. • (8) Inhibition rate calculation, formula: % Inhibition=(RFU_sample−RFU_min)/(RFU_max−RFU_min)*100%, wherein RFU-sample represents the fluorescence intensity of a sample; RFU-min represents the average value of negative control wells and represents the fluorescence intensity with an enzyme; and RFU-max represents the average value of positive control wells and represents the fluorescence intensity without an enzyme. The curve fitting was performed using Graphpad Prism software to obtain IC50 values, and the test results were as shown in table 2.

The target of data set [2] is T1, IDH1^R132H. Put plainly: 2-HG assay in cells (U87 cell line stably transfected with IDH1-R132H). The class given is cell-based. To be noted: 72 hours, read-out: 2-HG in medium (IC50, nM) (IDH1^R132H). The method, then:
The compounds were detected for the inhibition of 2-HG production in the U87 cell line stably transfected with IDH1-R132H and the culture supernatant of TF-1 cells stably transfected with IDH2-R140Q. • (1) The cultured cells were collected by centrifugation, then suspended in a cell culture solution, counted, and seeded in a 96-well cell culture plate at 160 μL of cell suspension/well (20000 cells/well for U87-IDH1-R132H; 10000 cells/well for TF-1-IDH2-R140Q). • (2) A 96-well plate dilution was taken, and the compounds to be tested were diluted in a gradient manner in DMSO and a cell culture solution; and then 40 μL of the gradient-diluted compounds to be tested were added to the 96-well plate on which cells have been plated. […] Finally, the plate was cultured in a 37° C. incubator containing 5% CO2. • (3) After the compounds were incubated with the cells for 72 hours, the cell culture plate was taken out and centrifuged at 1500 rpm for 5 minutes, and then 100 μL of the medium supernatant was aspirated for 2-HG detection. • (4) 2-HG detection: the cell supernatant was diluted with purified water, 30 μL of the diluted sample was taken into a 1.5 ml centrifuge tube, and 200 μL of the internal standard solution was added. The mixture was mixed uniformly by vortex and centrifuged at 3200 rpm at 4° C. for 15 minutes. 100 μL of the supernatant solution was diluted with water at a 1:1 ratio and then detected by LC-MS. Analyte Peak Area was used to represent the 2-HG levels. • (5) Inhibition rate calculation, formula: % Inhibition=(1−Analyte Peak Area_sample/Analyte Peak Area_max)*100%, wherein Analyte Peak Area_sample represents the Analyte Peak Area of the sample to which the compound was added; Analyte Peak Area_max represents the average value of Analyte Peak Area of positive control wells (representing the absence of the compound). The curve fitting was performed using Graphpad Prism software to obtain IC50 values, and the test results were as shown in table 2.

Another data set has as its target T2, IDH2^R140Q (Homo sapiens, UniProt P48735, R140Q).
T2 sequence (P48735 40-452 R140Q): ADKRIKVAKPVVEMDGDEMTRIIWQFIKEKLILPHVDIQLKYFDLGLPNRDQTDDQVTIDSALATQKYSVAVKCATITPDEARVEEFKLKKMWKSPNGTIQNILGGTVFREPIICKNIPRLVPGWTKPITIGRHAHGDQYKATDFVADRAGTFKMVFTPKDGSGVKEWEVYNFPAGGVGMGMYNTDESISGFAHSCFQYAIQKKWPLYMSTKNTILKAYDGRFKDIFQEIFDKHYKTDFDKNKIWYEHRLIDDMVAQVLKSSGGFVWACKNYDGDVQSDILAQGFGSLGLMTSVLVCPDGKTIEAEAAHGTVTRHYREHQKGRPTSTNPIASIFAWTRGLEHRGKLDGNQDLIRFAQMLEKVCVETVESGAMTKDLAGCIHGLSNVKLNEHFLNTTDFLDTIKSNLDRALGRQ
Put plainly: Enzyme activity inhibition assay (fluorescence-based), IDH2 R140Q. The class given is biochemical. The method, then:
as §1

A short description of data set [3]: Pharmacokinetic detection in dogs. To be noted: beagle dogs. The data set is classed as in vivo. As for the experimental part:
Adult beagle dogs (6-12 months of age) received a single dose of the compounds to be tested via intravenous administration (IV) or oral gavage administration (PO), respectively. In the IV single dose, 5% DMSO+5% Solutol+90% physiological saline was used as the excipient; the intravenous administration was carried out at a dose of 1 mg/kg (2 females and 2 males); and the venous blood collection time was 5 min, 15 min, 0.5 h, 1 h, 2 h, 4 h, 6 h, 8 h, 10 h and 24 h. In the PO single dose, 5% DMSO+5% Solutol+90% purified water was used as the excipient; the oral gavage administration was carried out at a dose of 5 mg/kg (2 females and 2 males); and the blood collection time was 15 min, 0.5 h, 1 h, 2 h, 4 h, 6 h, 8 h, 10 h and 24 h. Blood samples were collected in tubes containing EDTA anticoagulants and centrifuged at 4000 rpm at 4° C. for 10 min, and the supernatants were transferred to centrifuge tubes and stored at −20° C. For the detection, 30 μL of the plasma supernatant sample was taken, and 200 μL of an internal standard solution was added. The mixture was centrifuged at 3000 rpm for 10 minutes. Then, 100 μL of the supernatant solution was diluted with water at a 1:1 ratio and then injected with an injection volume of 5 μL. The concentration of the compounds to be tested in the plasma sample was analyzed by liquid chromatography-tandem mass spectrometry (LC-MS/MS). Plasma concentration-time data for individual animals were analyzed using Sciex Analyst software. The non-compartment model was introduced into the concentration analysis, and pharmacokinetic parameters (Cl_obs, Cmax and AUClast) of the compounds to be tested were calculated using WinNonlin (version 4.1; pHarsight) software.

Data set [4] in a line: Kinetic solubility experiment. The note with it: buffer, kinetic from dmso stock. The class given is physicochemical. The method, then:
1. Preparation of Solutions/Buffers at Different pH Values
• Solution A: 17.42 g of K2HPO4 was weighed and dissolved in 1 L of ultrapure water. • Solution B: 13.65 g of KH2PO4 was weighed and dissolved in 1 L of ultrapure water.
A certain mass of substance to be tested was accurately weighed and dissolved in a certain volume of DMSO to obtain a 20 mM or 10 mM stock solution.
An acetonitrile stopping solution containing 1 ng/mL of labetalol and glibenclamide was prepared.
3. Incubation System (n=3)
The above-mentioned solutions were placed in a 96-well plate, respectively and shaken in a thermostatic oscillator for 2 hours (37° C., 150 rpm).
4. Control solution: 200 μM control solution of the substance to be tested was prepared in methanol. 5. Sample treatment
At a predetermined time, the 96-well plate was placed in a centrifuge and centrifuged at 4100 rpm for 15 minutes. A certain volume of the supernatant and a certain volume of control solution were respectively taken into 19 times volume of water containing 70% acetonitrile that has been previously added. The mixture was uniformly mixed, diluted 20 times with an internal standard stop solution and shaken in a thermostatic oscillator at 700 rpm at room temperature for 5 min. Further dilution may be necessary depending on the sensitivity of the compound, and sample analysis was performed by LC-MS/MS.
The ratio of compound peak area to internal standard peak area was used for calculation. According to the concentration relationship between the compound in the buffer and the control solution, the calculated concentration was the kinetic solubility, and the calculation formula was as follows:
Solubility(μg/mL)=mass spectral peak area of the compound to be tested in buffers at different pHs×200μM×molecular weight of the compound to be tested(MW)/mass spectral peak area of the compound to be tested in methanol/1000;

In another data set the test system is mutant IDH1. To be noted: AML or MDS patients carrying IDH1 gene mutations, Phase I; cited from earlier work.
The mark [5] stands for this setting: both sexes, dog, plasma, PO, 5 mg/kg.

The structures appear in SMILES notation. ≈ marks a conversion by molar mass, not a printed value. A value given as a limit tells only on which side of the number the result lay.

T1 sequence (O75874 whole entry R132H): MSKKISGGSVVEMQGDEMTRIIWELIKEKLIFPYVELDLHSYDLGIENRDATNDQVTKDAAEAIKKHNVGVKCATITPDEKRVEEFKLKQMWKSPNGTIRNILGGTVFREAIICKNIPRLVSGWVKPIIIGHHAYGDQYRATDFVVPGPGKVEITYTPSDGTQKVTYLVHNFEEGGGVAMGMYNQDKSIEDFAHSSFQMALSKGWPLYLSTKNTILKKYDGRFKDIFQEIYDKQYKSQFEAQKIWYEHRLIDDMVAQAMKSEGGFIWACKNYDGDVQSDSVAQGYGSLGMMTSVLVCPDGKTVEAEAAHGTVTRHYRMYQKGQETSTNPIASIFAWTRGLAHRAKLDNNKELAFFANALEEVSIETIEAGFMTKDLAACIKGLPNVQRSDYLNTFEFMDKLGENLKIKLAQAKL

Take `C[C@@H](Nc1nc(N[C@H](C)C(F)(F)F)nc(-c2cc(Cl)c(N)c(Cl)n2)n1)C(F)(F)F` [Example 1]: the values for the half-maximal inhibitory concentration (IC50) at IDH1^R132H [1] (numeric values), on IDH1^R132H [2] (numeric values) and on IDH2^R140Q (numeric values) were 143 nM, 26 nM and 128 nM, respectively.
On to `C[C@@H](Nc1nc(N[C@H](C)C(F)(F)F)nc(-c2cc(Cl)c(O)c(Cl)n2)n1)C(F)(F)F` [Example 19, 6-(4,6-dichloro-5hydroxylpyridin-2-yl)-N^2,N^4-bis((R)-1,1,1-trifluoroprop-2-yl)-1,3,5-triazine-2,4-diamine], for which the concentration for half-maximal inhibition (IC50) was 50 to 100 nM at IDH1^R132H [1] (class symbols), above 1000 nM at IDH1^R132H [2] (class symbols) and 50 to 100 nM at IDH2^R140Q (class symbols).
For `Cc1cc(-c2nc(N[C@H](C)C(F)(F)F)nc(N[C@H](C)C(F)(F)F)n2)nc(Cl)c1N` [Example 7, 6-(5-amino-6-chloro-4-methylpyridin-2-yl)-N^2,N^4-bis((R)-1,1,1-trifluoropropyl-2-yl)-1,3,5-triazine-2,4-diamine], the IC50 on IDH1^R132H [1] (class symbols) was above 1000 nM; at IDH1^R132H [2] (class symbols) it was 50 to 100 nM; on IDH2^R140Q (class symbols), 100 to 1000 nM.
For `C[C@@H](Nc1nc(N[C@H](C)C(F)(F)F)nc(-c2cc(F)c(N)c(F)n2)n1)C(F)(F)F` [Example 23, 6-(5-amino-4,6-difluoropyridin-2-yl)-N^2,N^4-bis((R)-1,1,1-trifluoroprop-2-yl)-1,3,5-triazine-2,4-diamine], the IC50 is 100 to 1000 nM on IDH1^R132H [1] (class symbols), at most 50 nM at IDH1^R132H [2] (class symbols) and 100 to 1000 nM at IDH2^R140Q (class symbols).
Turning to `C[C@@H](Nc1nc(N[C@H](C)C(F)(F)F)nc(-c2cccc(Cl)n2)n1)C(F)(F)F` [compound 1, reference compound], the Cl_obs in data set [3] (IV, 1 mg/kg) is listed as 24.2 mL/min/kg. Further, the area under the curve AUC(0-t) was determined as 653 ng·h/mL in data set [3] (both sexes, dog, plasma, IV, 1 mg/kg) and 2160 ng·h/mL in data set [3] (setting [5]). The compound also yielded a Cmax in data set [3] (setting [5]) of 658 ng/mL. Also, the solubility at 2 h in data set [4] (aqueous buffer, pH = 3.0, 37° C.) is 1.6 µg/mL (≈ 3.86 µM); in data set [4] (aqueous buffer, pH = 5.0, 37° C.) it was 1.4 µg/mL (≈ 3.38 µM); in data set [4] (aqueous buffer, pH = 7.4, 37° C.), 0.8 µg/mL (≈ 1.93 µM); in data set [4] (simulated gastric fluid, pH = 1.0, 37° C.) it was 39.6 µg/mL (≈ 95.5 µM).
Consider `C[C@@H](Nc1nc(N[C@H](C)C(F)(F)F)nc(-c2cc(C(F)F)c(N)c(Cl)n2)n1)C(F)(F)F` [Example 8, 6-(5-amino-6-chloro-4-(difluoromethyl)pyridin-2-yl)-N^2,N^4-bis((R)-1,1,1-trifluoroprop-2-yl)-1,3,5-triazine-2,4-diamine], for which the figures for the IC50 at IDH1^R132H [1] (class symbols), at IDH1^R132H [2] (class symbols) and at IDH2^R140Q (class symbols) were above 1000 nM, 100 to 1000 nM and 100 to 1000 nM, respectively.
In the case of `C[C@@H](Nc1nc(N[C@H](C)C(F)(F)F)nc(-c2cc(F)c(Br)c(Cl)n2)n1)C(F)(F)F` [Example 18, 6-(5-bromo-6-chloro-4-fluoropyridin-2-yl)-N^2,N^4-bis((R)-1,1,1-trifluoroprop-2-yl)-1,3,5-triazine-2,4-diamine], the IC50 at IDH1^R132H [1] (class symbols) was 50 to 100 nM; on IDH1^R132H [2] (class symbols), above 1000 nM; at IDH2^R140Q (class symbols), 50 to 100 nM.
Turning to `N#Cc1ccnc(N2C(=O)CC[C@H]2C(=O)N(c2cncc(F)c2)[C@H](C(=O)NC2CC(F)(F)C2)c2ccccc2Cl)c1` [AG-120], the “patients in whom a decrease in α-hydroxyglutaric acid (2-HG) levels was observed” value with mutant IDH1 was 98%.
